From patent publication US12091402B2 (Avilar Therapeutics, Inc., priority 2021, dated 2024)
Like-named read-outs stand apart in the source and are kept apart here.

What was measured:
[1] = biological target: T1, ASGPR receptor on the cell surface (HepG2 cells) (Homo sapiens, UniProt P07306); assay: Ternary complex formation assay (flow cytometry, HepG2); type: cell-based
T1 construct: host or cells: HepG2
T1 sequence (P07306 1-291): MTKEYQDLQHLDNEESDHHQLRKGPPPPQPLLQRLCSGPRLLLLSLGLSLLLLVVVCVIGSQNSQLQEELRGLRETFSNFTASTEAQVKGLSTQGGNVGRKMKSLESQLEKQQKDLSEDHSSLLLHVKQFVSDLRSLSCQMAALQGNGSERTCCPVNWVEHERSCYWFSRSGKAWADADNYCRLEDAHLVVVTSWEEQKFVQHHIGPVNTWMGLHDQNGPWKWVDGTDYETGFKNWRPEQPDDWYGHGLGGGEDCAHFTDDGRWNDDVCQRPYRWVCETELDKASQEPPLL
T1 sequence (P07307 1-311 partner): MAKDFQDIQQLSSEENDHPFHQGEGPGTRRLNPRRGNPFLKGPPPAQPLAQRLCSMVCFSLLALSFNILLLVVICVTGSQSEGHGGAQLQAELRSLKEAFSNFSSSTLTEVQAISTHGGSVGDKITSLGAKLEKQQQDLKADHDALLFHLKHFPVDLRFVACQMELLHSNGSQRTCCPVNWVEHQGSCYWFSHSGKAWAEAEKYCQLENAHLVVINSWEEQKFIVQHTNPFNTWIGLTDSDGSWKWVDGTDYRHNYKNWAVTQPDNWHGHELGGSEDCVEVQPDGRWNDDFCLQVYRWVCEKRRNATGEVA
Text: The ternary complex formation assay is designed to identify the concentration of Degrader required to form a complex between the degrader, a constant concentration of fluorescently-labeled antibody and the ASGPR receptor on the cell surface. The peak mean fluorescence intensity (MFI) occurs at the optimal degrader concentration for ternary complex formation. Sub-optimal concentrations of degrader (too much or too little) results in fewer complexes formed and a reduced […].
Human IgG (Sigma-Aldrich, 14506) was covalently labeled with Alexa Fluor 488 using the Alexa Fluor™ 488 Protein Labeling Kit (Thermo Fisher, A10235) following the manufacturer's instructions. HepG2 cells (ATCC, HIB-8065) were cultured to about 70% confluence and harvested by trypsinization. Single cell suspensions of HepG2 cells were plated in 96 well plates at 1×10^5 cells/well in cell culture media (DMEM supplemented with […]) and placed at 4° C. For studies using human IgG, cells were incubated with 100 nM AF488-labeled anti-human IgG and serial dilutions of IgG-based degrader for 1 hour at 4° C. For studies using DNP, cells were incubated with 100 nM AF488-labeled polyclonal rabbit anti-dinitrophenyl (DNP) antibodies (ThermoFisher) and serial dilutions of DNP-based degrader for 1 hour at 4° C. After washing once with ice-cold PBS containing 0.1% BSA and 0.1% sodium azide, cells were resuspended in 150 uL PBS+0.1% BSA and cell-associated AF488 fluorescence was measured by flow cytometry using the iQue® Screener PLUS Flow Cytometer (IntelliCyt).

HepG2 cells = assay: Cellular uptake assay of AF488-labeled antibody (HepG2); type: cell-based
Procedure: The cellular uptake assay is designed to measure compound-mediated cellular uptake of fluorescently labeled antibody following ternary complex formation with the ASGPR receptor and endocytosis of the entire complex into cells.
Human IgG (Sigma-Aldrich, 14506) was covalently labeled with Alexa Fluor 488 using the Alexa Fluor™ 488 Protein Labeling Kit (Thermo Fisher, A10235) following the manufacturer's instructions. HepG2 cells were plated in DMEM supplemented with 10% FBS at 5,000 cells per well in a 96-well microtiter plate and incubated for approximately 18 hours at 37° C./5% CO2. For studies using human IgG, 100 nM AF488-labeled human IgG antibodies and serial dilutions of IgG-based degrader (0.1% DMSO final concentration) were added to the cells and the mixture was incubated at 37° C. for 6 hours. For studies using DNP, 100 nM AF488-labeled DNP antibodies and serial dilutions of DNP-based degrader (0.1% DMSO final concentration) were added to the cells and the mixture was incubated at 37° C. for 6 hours. HepG2 cells were fixed in 100% methanol at −20° C. for 20 min, washed 3× with PBS, then stained with DAPI (Thermo, Cat #H3570). HepG2 cells were imaged for DAPI and Alexa Fluor 488 using the Operetta CLS, high-content analysis system (PerkinElmer). Data is presented as the ratio of the number of cells positive for hIgG or DNP (AF-488 fluorescence) over the total cell number (measured by DAPI).

[2] = HepG2 cells, 100 nM AF488-labeled antibody, 37° C. for 6 hours, class symbols, read-out: Uptake Assay EC50
[3] = HepG2 cells, read-out: Uptake EC50

Question: `CC(C)C[C@@H]1NC(=O)[C@H](Cc2c[nH]cn2)NC(=O)[C@H](Cc2c[nH]c3ccccc23)NC(=O)[C@H](C)NC(=O)[C@@H]2CSSC[C@H](NC(=O)[C@H](Cc3c[nH]c4ccccc34)NC(=O)[C@H](C(C)C)NC(=O)[C@H](CC(C)C)NC(=O)[C@H](CCC(=O)O)NC(=O)CNC1=O)C(=O)N[C@@H]([C@@H](C)O)C(=O)N1CCC[C@@H]1C(=O)N1C[C@@H](NC(=O)COCCOCCOCC(=O)NC(COCCC(=O)NCCOCCOCCOCCOC[C@H]3OC[C@H](Nc4cncc(C(F)(F)F)n4)[C@@H](O)[C@H]3O)COCCC(=O)NCCOCCOCCOCCOC[C@H]3OC[C@H](Nc4cncc(C(F)(F)F)n4)[C@@H](O)[C@H]3O)C[C@H]1C(=O)N[C@@H](CC(=O)O)C(=O)N2` [Compound 40] was tested. Which EC50 [1] did it give?
Answer: Its EC50 is less than 100 nM.

Question: And the EC50 (HepG2 cells; [2])?
Answer: Its EC50 is less than 100 nM.

Question: For `CC(C)C[C@@H]1NC(=O)[C@H](Cc2c[nH]cn2)NC(=O)[C@H](Cc2c[nH]c3ccccc23)NC(=O)[C@H](C)NC(=O)[C@@H]2CSSC[C@H](NC(=O)[C@H](Cc3c[nH]c4ccccc34)NC(=O)[C@H](C(C)C)NC(=O)[C@H](CC(C)C)NC(=O)[C@H](CCC(=O)O)NC(=O)CNC1=O)C(=O)N[C@@H]([C@@H](C)O)C(=O)N1CCC[C@@H]1C(=O)N1C[C@@H](NC(=O)CNC(COCCC(=O)NCCOCCOCCOCCOC[C@H]3OC[C@H](Nc4nccc(C(F)(F)F)n4)[C@@H](O)[C@H]3O)COCCC(=O)NCCOCCOCCOCCOC[C@H]3OC[C@H](Nc4nccc(C(F)(F)F)n4)[C@@H](O)[C@H]3O)C[C@H]1C(=O)N[C@@H](CC(=O)O)C(=O)N2` [Compound 50], which EC50 [1] is on record?
Answer: Its EC50 is less than 100 nM.

Question: And the EC50 (HepG2 cells; [2])?
Answer: Its EC50 is less than 100 nM.

Question: Which results are given for `CC(C)C[C@@H]1NC(=O)[C@H](Cc2cnc[nH]2)NC(=O)[C@H](Cc2c[nH]c3ccccc23)NC(=O)[C@H](C)NC(=O)[C@@H](NC(=O)[C@@H](N)CC(=O)O)CSSC[C@@H](C(=O)N[C@H](C(N)=O)[C@@H](C)O)NC(=O)[C@H](Cc2c[nH]c3ccccc23)NC(=O)[C@H](C(C)C)NC(=O)[C@H](CC(C)C)NC(=O)[C@H](CCC(=O)NCCOCCOCCOCCOCCNC(=O)CCCc2cn(CCCCCC(=O)NC(COCCC(=O)NCCOCCOCCOCCOC[C@H]3OC[C@H](Nc4nccc(C(F)(F)F)n4)[C@@H](O)[C@H]3O)COCCC(=O)NCCOCCOCCOCCOC[C@H]3OC[C@H](Nc4nccc(C(F)(F)F)n4)[C@@H](O)[C@H]3O)nn2)NC(=O)CNC1=O` [Compound 2]?
Answer: EC50 [1]: < 100 nM; EC50 (HepG2 cells; [2]): 100 to 500 nM

Question: With `CC(C)C[C@@H]1NC(=O)[C@H](Cc2c[nH]cn2)NC(=O)[C@H](Cc2c[nH]c3ccccc23)NC(=O)[C@H](C)NC(=O)[C@@H]2CSSC[C@H](NC(=O)[C@H](Cc3c[nH]c4ccccc34)NC(=O)[C@H](C(C)C)NC(=O)[C@H](CC(C)C)NC(=O)[C@H](CCC(=O)O)NC(=O)CNC1=O)C(=O)N[C@@H]([C@@H](C)O)C(=O)N1CCC[C@@H]1C(=O)N1C[C@@H](NC(=O)CNC(COCCC(=O)NCCOCCOCCOCCOC[C@@]34CO[C@@H](O3)[C@H](Nc3cncc(C(F)(F)F)n3)[C@@H](O)[C@H]4O)COCCC(=O)NCCOCCOCCOCCOC[C@@]34CO[C@@H](O3)[C@H](Nc3cncc(C(F)(F)F)n3)[C@@H](O)[C@H]4O)C[C@H]1C(=O)N[C@@H](CC(=O)O)C(=O)N2` [Compound 73] as the compound, how does the EC50 [1] read?
Answer: Its EC50 is less than 100 nM.

Question: What about the EC50 (HepG2 cells; [3]) of the same compound?
Answer: The EC50 was 500 to 1000 nM.

Question: Which EC50 [1] does the source give for `CC(C)C[C@@H]1NC(=O)[C@H](Cc2c[nH]cn2)NC(=O)[C@H](Cc2c[nH]c3ccccc23)NC(=O)[C@H](C)NC(=O)[C@@H]2CSSC[C@H](NC(=O)[C@H](Cc3c[nH]c4ccccc34)NC(=O)[C@H](C(C)C)NC(=O)[C@H](CC(C)C)NC(=O)[C@H](CCC(=O)O)NC(=O)CNC1=O)C(=O)N[C@@H]([C@@H](C)O)C(=O)N1CCC[C@@H]1C(=O)N1C[C@@H](NC(=O)CCOCCOCCOCCNC(=O)CCCc3cn(C[C@@]45CO[C@@H](O4)[C@H](Nc4nc(Cl)ns4)[C@@H](O)[C@H]5O)nn3)C[C@H]1C(=O)N[C@@H](CC(=O)O)C(=O)N2` [Compound 5] here?
Answer: Its EC50 is less than 100 nM.

Question: What about the EC50 (HepG2 cells; [2]) of the same compound?
Answer: Its EC50 is less than 100 nM.

Question: `CC(C)C[C@@H]1NC(=O)[C@H](Cc2cnc[nH]2)NC(=O)[C@H](Cc2c[nH]c3ccccc23)NC(=O)[C@H](C)NC(=O)[C@@H]2CSSC[C@H](NC(=O)[C@H](Cc3c[nH]c4ccccc34)NC(=O)[C@H](C(C)C)NC(=O)[C@H](CC(C)C)NC(=O)[C@H](CCC(=O)O)NC(=O)CNC1=O)C(=O)N[C@@H]([C@@H](C)O)C(=O)N1CCC[C@@H]1C(=O)N1C[C@@H](NC(=O)COCCOCC(=O)NC(COCCC(=O)NCCOCCOCCOCCOC[C@H]3OC[C@H](Nc4nccc(C(F)(F)F)n4)[C@@H](O)[C@H]3O)COCCC(=O)NCCOCCOCCOCCOC[C@H]3OC[C@H](Nc4nccc(C(F)(F)F)n4)[C@@H](O)[C@H]3O)C[C@H]1C(=O)N[C@@H](CC(=O)O)C(=O)N2` [Compound 47] was tested. Which EC50 ([1]; HepG2 cells, 100 nM AF488-labeled antibody, 1 hour at 4° C., class symbols, read-out: Ternary Complex EC50) did it give?
Answer: Its EC50 is less than 100 nM.

Question: And the EC50 (HepG2 cells; [2])?
Answer: Its EC50 is less than 100 nM.

Question: Which results are given for `CC(C)C[C@@H]1NC(=O)[C@H](Cc2c[nH]cn2)NC(=O)[C@H](Cc2c[nH]c3ccccc23)NC(=O)[C@H](C)NC(=O)[C@@H](NC(=O)[C@H](CC(=O)O)NC(=O)CCOCCOCCOCCOCCNC(=O)CCCc2cn(CCCCCC(=O)NC(COCCC(=O)NCCOCCOCCOCCO[C@@H]3O[C@H](CO)[C@H](O)[C@H](O)[C@H]3Nc3cncc(C(F)(F)F)n3)COCCC(=O)NCCOCCOCCOCCO[C@@H]3O[C@H](CO)[C@H](O)[C@H](O)[C@H]3Nc3cncc(C(F)(F)F)n3)nn2)CSSC[C@@H](C(=O)N[C@H](C(N)=O)[C@@H](C)O)NC(=O)[C@H](Cc2c[nH]c3ccccc23)NC(=O)[C@H](C(C)C)NC(=O)[C@H](CC(C)C)NC(=O)[C@H](CCC(=O)O)NC(=O)CNC1=O` [Compound 89]?
Answer: EC50 ([1]; HepG2 cells, ternary complex formation, read-out: TCF EC50): < 100 nM; EC50 (HepG2 cells; [3]): < 100 nM

Question: For `O=[N+]([O-])c1ccc(NCCOCCOCCOCCOCCOCCOCCOC[C@@]23CO[C@@H](O2)[C@H](Nc2nc(Cl)ns2)[C@@H](O)[C@H]3O)c([N+](=O)[O-])c1` [Compound 26, (1S,2R,3R,4R,5S)-4-((3-chloro-1,2,4-thiadiazol-5-yl)amino)-1-(22-((2,4-dinitrophenyl)amino)-2,5,8,11,14,17,20-heptaoxadocosyl)-6,8-dioxabicyclo[3.2.1]octane-2,3-diol], which EC50 ([1]; Ternary Complex EC50 (nM), HepG2 cells, 100 nM AF488-labeled antibody, 1 hour at 4° C., class symbols) is on record?
Answer: Its EC50 is less than 100 nM.

Question: What about the EC50 (HepG2 cells; Homo sapiens, HepG2, 6 h, read-out: Uptake Assay EC50 (nM)) of the same compound?
Answer: Its EC50 is less than 100 nM.

Question: How did the EC50 [1] turn out when `CC(C)C[C@@H]1NC(=O)[C@H](Cc2c[nH]cn2)NC(=O)[C@H](Cc2c[nH]c3ccccc23)NC(=O)[C@H](C)NC(=O)[C@@H]2CSSC[C@H](NC(=O)[C@H](Cc3c[nH]c4ccccc34)NC(=O)[C@H](C(C)C)NC(=O)[C@H](CC(C)C)NC(=O)[C@H](CCC(=O)O)NC(=O)CNC1=O)C(=O)N[C@@H]([C@@H](C)O)C(=O)N1CCC[C@@H]1C(=O)N1C[C@@H](NC(=O)CCOCCOCCOCCNC(=O)CCCc3cn(CCCCCC(=O)NC(COCCC(=O)NCCOCCOCCOCCOC[C@H]4OC[C@H](Nc5nccc(C(F)(F)F)n5)[C@@H](O)[C@H]4O)COCCC(=O)NCCOCCOCCOCCOC[C@H]4OC[C@H](Nc5nccc(C(F)(F)F)n5)[C@@H](O)[C@H]4O)nn3)C[C@H]1C(=O)N[C@@H](CC(=O)O)C(=O)N2` [Compound 11] was run?
Answer: Its EC50 is less than 100 nM.

Question: What about the EC50 (HepG2 cells; [2]) of the same compound?
Answer: The EC50 was less than 100 nM.
